In US8906825B2, “Herbicidal compositions comprising 4-amino-3-chloro-5-fluoro-6-(4-chloro-2-fluoro-3-methoxyphenyl) pyridine-2-carboxylic acid or a derivative thereof and triazolopyrimidine sulfonamides” (Dow AgroSciences LLC, priority 2012, dated 2014):

Legend:
[1] = tested on: ECHCG (Echinochloa crusgalli (L.) Beauv., barnyardgrass); experiment: In-water applied herbicidal mixtures, transplanted paddy rice, greenhouse (Example II); assay type: in vivo
[2] = tested on: FIMMI (Fimbristylis miliacea (L.) Vahl, globe fringerush); experiment: as above; assay type: in vivo; details: Compound A Benzyl Ester 8 gae/ha

COc1c(Cl)ccc(-c2nc(C(=O)OCc3ccccc3)c(Cl)c(N)c2F)c1F [Compound A Benzyl Ester, benzyl ester of 4-amino-3-chloro-5-fluoro-6-(4-chloro-2-fluoro-3-methoxy-phenyl)pyridine-2-carboxylic acid] was tested, and the “Visual Weed Control (%) - 21 DAA ECHCG Obs” value ([1]; Compound A Benzyl Ester 4.38 gae/ha) was 20%, the “Visual Weed Control (%) - 21 DAA ECHCG Obs” value ([1]; Compound A Benzyl Ester 8.75 gae/ha) was 85% and the “Visual Weed Control (%) - 21 DAA FIMMI Obs” value [2] was 30%.
